Source: patent publication EP3696177A1, “HETEROCYCLIC COMPOUNDS FOR THE CONTROL OF INVERTEBRATE PESTS” (BASF SE, priority 2019, dated 2020)

Legend:
Format in all cases: in vivo
Heliothis virescens = test: Tobacco budworm (Heliothis virescens) insect diet microtiter plate test; conditions: 120 h, read-out: mortality in comparison with untreated controls (egg and larval mortality)
Procedure: For evaluating control of tobacco budworm (Heliothis virescens) the test unit consisted of 96-well-microtiter plates containing an insect diet and 15-25 H. virescens eggs.
The compounds were formulated using a solution containing 75% v/v water and 25% v/v DMSO. Different concentrations of formulated compounds were sprayed onto the insect diet at 10 µl, us-ing a custom built micro atomizer, at two replications.
After application, microtiter plates were incubated at about 28 + 1°C and about 80 + 5 % relative humidity for 5 days. Egg and larval mortality was then visually assessed.

Myzus persicae = test: Green peach aphid (Myzus persicae) artificial diet/membrane systemic test; conditions: 72 h, read-out: mortality in comparison with untreated controls
Source text: For evaluating control of green peach aphid (Myzus persicae) through systemic means the test unit consisted of 96-well-microtiter plates containing liquid artificial diet under an artificial membrane.
The compounds were formulated using a solution containing 75% v/v water and 25% v/v DMSO. Different concentrations of formulated compounds were pipetted into the aphid diet, using a cus-tom built pipetter, at two replications.
After application, 5 - 8 adult aphids were placed on the artificial membrane inside the microtiter plate wells. The aphids were then allowed to suck on the treated aphid diet and incubated at about 23 + 1°C and about 50 + 5 % relative humidity for 3 days. Aphid mortality and fecundity was then visually assessed.

Caenorhabditis elegans = Caenorhabditis elegans liquid diet microtiter plate test; conditions: 96 h, read-out: mortality in comparison with untreated controls (nematode motility (mortality))
Procedure: For evaluating control of Caenorhabditis elegans through contact or systemic means the test unit consisted of 96-well-microtiter plates containing a liquid diet.
The compounds or mixtures were formulated using a solution containing 75% water and 25% DMSO. Different concentrations of formulated compounds were sprayed into the microtiter plate wells at 5µl per well, using a custom built micro atomizer, at two replications. Mixed instar 60-100 C. elegans were transferred into the micro-titer plate wells. After application, the nematodes were incubated at 18 + 1°C, 70 + 5 % RH for 4 days. Nematode motility (mortality) was then visually assessed.

Aphis craccivora = test: Cowpea aphid (Aphis craccivora) spray test on potted cowpea plants; conditions: aphids of various stages, after 72 hours, read-out: mortality in comparison with untreated controls
Procedure: The active compound is dissolved at the desired concentration in a mixture of 1:1 (vol: vol) distilled water: acetone. Surfactant (Kinetic) is added at a rate of 0.01% (vol/vol). The test solution is prepared at the day of use.
Potted cowpea plants are colonized with approximately 30 - 50 aphids of various stages by man-ually transferring aphid-infested leaf clippings 24 hours before application. Plants are sprayed with the test solutions using a DeVilbiss® hand atomizer at 20- 30 psi (≈ 1.38 to 2.07 bar) after the pest population has been checked. Treated plants are maintained on light carts at about 25- 26°C. Estimate percent mortality is assessed after 72 hours.

Anthonomus grandis = test: Boll weevil (Anthonomus grandis) insect diet microtiter plate test; conditions: 120 h, read-out: mortality in comparison with untreated controls (egg and larval mortality)
Procedure: For evaluating control of boll weevil (Anthonomus grandis) the test unit consisted of 96-well-microtiter plates containing an insect diet and 5-10 A. grandis eggs.
The compounds were formulated using a solution containing 75% v/v water and 25% v/v DMSO. Different concentrations of formulated compounds were sprayed onto the insect diet at 5 µl, using a custom built micro atomizer, at two replications.
After application, microtiter plates were incubated at about 25 + 1°C and about 75 + 5 % relative humidity for 5 days. Egg and larval mortality was then visually assessed.

Plutella xylostella = test: Diamond back moth (Plutella xylostella) cabbage leaf disc dip test; conditions: foliar, 72 h, read-out: mortality in comparison with untreated controls
Procedure: The active compound is dissolved at the desired concentration in a mixture of 1:1 (vol:vol) distilled water: acetone. Surfactant (Kinetic) is added at a rate of 0.01% (vol/vol). The test solution is pre-pared at the day of use.
Cabbage leaf discs (60mm in diameter) are dipped in test solution and air-dried. Treated leaves are placed in petri dishes lined with moistened filter paper and inoculated with ten 3rd instar larvae. Mortality is recorded 72 hours after treatment. Feeding damage is also recorded using a scale of 0-100%.

Aedes aegypti = test: whole plant or invertebrate; conditions: 48 h, A. aegypti larvae, incubated 2 days, read-out: mortality in comparison with untreated controls (larval mortality)
Procedure: For evaluating control of yellow fever mosquito (Aedes aegypti) the test unit consisted of 96-well-microtiter plates containing 200µl of tap water per well and 5-15 freshly hatched A. aegypti larvae.
The active compounds were formulated using a solution containing 75% (v/v) water and 25% (v/v) DMSO. Different concentrations of formulated compounds or mixtures were sprayed onto the insect diet at 2.5µl, using a custom built micro atomizer, at two replications.
After application, microtiter plates were incubated at 28 + 1°C, 80 + 5 % RH for 2 days. Larval mortality was then visually assessed.

Nephotettix virescens = test: Rice green leafhopper (Nephotettix virescens) spray test on rice seedlings; conditions: adults, after 72 hours, read-out: mortality in comparison with untreated controls
Procedure: Four to five-week old rice seedlings with cut upper leaf portion are cleaned and washed 24 hours before spraying. The active compounds are formulated in 1:1 acetone:water (vol:vol), and 0.01% vol/vol surfactant (Kinetic) is added. Potted rice seedlings are sprayed with 5-6 ml test solution, air dried, covered with Mylar cages and inoculated with 10 adults. Treated rice plants are kept at about 28-29°C and relative humidity of about 50-60%. Percent mortality is recorded after 72 hours.

dichromothrips corbetti = test: Orchid thrips floral-immersion test; conditions: 72 h, read-out: mortality in comparison with untreated controls
Procedure: Dichromothrips corbetti adults used for bioassay are obtained from a colony maintained continu-ously under laboratory conditions. For testing purposes, the test compound is diluted in a 1:1 mix-ture of acetone:water (vol:vol), plus Kinetic at a rate of 0.01% v/v.
Thrips potency of each compound is evaluated by using a floral-immersion technique. Each orchid petal is dipped into treatment solution and allowed to dry in Petri dishes. Treated petals are placed into individual re-sealable plastic along with about 20 adult thrips. All test arenas are held under dark condition and a temperature of about 28°C for duration of the assay. The percent mor-tality is recorded 72 hours after treatment.

Tetranychus kanzawai = test: Red spider mite (Tetranychus kanzawai) spray test on cowpea beans; conditions: topical, 72 h, read-out: mortality in comparison with untreated controls
Procedure: The active compound is dissolved at the desired concentration in a mixture of 1:1 (vol:vol) distilled water: acetone. Add surfactant (Kinetic) is added at a rate of 0.01% (vol/vol). The test solution is prepared at the day of use.
Potted cowpea beans of 4-5 days of age are cleaned with tap water and sprayed with 1-2 ml of the test solution using air driven DeVilbiss® hand atomizer at 20- 30 psi (≈ 1,38 to 2,07 bar). The treated plants are allowed to air dry and afterwards inoculated with 30 or more mites by clipping a cassava leaf section from rearing population. Treated plants are placed inside a holding room at about 25-26°C and about 65-70% relative humidity. Estimate percent mortality is assessed 72 hours after treatment.

Megoura viciae = test: Vetch aphid (Megoura viciae) broad bean leaf disk test; conditions: foliar, 120 h, read-out: mortality in comparison with untreated controls
Procedure: For evaluating control of vetch aphid (Megoura viciae) through contact or systemic means the test unit consisted of 24-well-microtiter plates containing broad bean leaf disks.
The compounds were formulated using a solution containing 75% v/v water and 25% v/v DMSO. Different concentrations of formulated compounds were sprayed onto the leaf disks at 2.5 µl, us-ing a custom built micro atomizer, at two replications.
After application, the leaf disks were air-dried and 5 - 8 adult aphids placed on the leaf disks in-side the microtiter plate wells. The aphids were then allowed to suck on the treated leaf disks and incubated at about 23 + 1°C and about 50 + 5 % relative humidity for 5 days. Aphid mortality and fecundity was then visually assessed.

Nezara viridula = test: Green soldier stink bug (Nezara viridula) soybean pod spray test; conditions: 120 h, late 3rd instar N. viridula, after 5 days, read-out: mortality in comparison with untreated controls
Procedure: The active compound is dissolved at the desired concentration in a mixture of 1:1 (vol:vol) distilled water: aceteone. Surfactant (Kinetic) is added at a rate of 0.01% (vol/vol).The test solution is prepared at the day of use.
Soybean pods are placed in 90 x 50 mm glass Petri dishes lined with moistened filter paper and inoculated with ten late 3rd instar N. viridula. Using a hand atomizer, an approximately 2 ml solution is sprayed into each Petri dish. Treated set-up is kept at about 25-26°C and relative humidity of about 65-70%. Percent mortality is recorded after 5 days.

CN1C(=O)SC(NC(=O)c2ccc(C3=NOC(c4cc(Cl)cc(Cl)c4)(C(F)(F)F)C3)cc2Cl)C1=O (stereo not drawn) [Compound I-1-1]
> 75%: mortality at 2500 ppm (Heliothis virescens) | mortality at 2500 ppm (Myzus persicae) | mortality at 2500 ppm (Caenorhabditis elegans) | mortality at 300 ppm (Aphis craccivora) | mortality at 2500 ppm (Anthonomus grandis) | mortality at 300 ppm (Plutella xylostella) | mortality at 2500 ppm (Aedes aegypti) | mortality at 300 ppm (Nephotettix virescens) | mortality at 300 ppm (dichromothrips corbetti) | mortality at 300 ppm (Tetranychus kanzawai) | mortality at 2500 ppm (Megoura viciae) | mortality at 300 ppm (Nezara viridula)

CCN1C(=O)SC(NC(=O)c2ccc(C3=NOC(c4cc(Cl)cc(Cl)c4)(C(F)(F)F)C3)cc2Cl)C1=O (stereo not drawn) [Compound I-1-2]
> 75%: mortality at 2500 ppm (Heliothis virescens) | mortality at 2500 ppm (Myzus persicae) | mortality at 2500 ppm (Caenorhabditis elegans) | mortality at 300 ppm (Aphis craccivora) | mortality at 2500 ppm (Anthonomus grandis) | mortality at 300 ppm (Plutella xylostella) | mortality at 2500 ppm (Aedes aegypti) | mortality at 300 ppm (Nephotettix virescens) | mortality at 300 ppm (dichromothrips corbetti) | mortality at 300 ppm (Tetranychus kanzawai) | mortality at 2500 ppm (Megoura viciae) | mortality at 300 ppm (Nezara viridula)

CC(C)N1C(=O)SC(NC(=O)c2ccc(C3=NOC(c4cc(Cl)cc(Cl)c4)(C(F)(F)F)C3)cc2Cl)C1=O (stereo not drawn) [Compound I-1-3]
> 75%: mortality at 2500 ppm (Heliothis virescens) | mortality at 2500 ppm (Myzus persicae) | mortality at 2500 ppm (Caenorhabditis elegans) | mortality at 2500 ppm (Anthonomus grandis) | mortality at 300 ppm (Plutella xylostella) | mortality at 2500 ppm (Aedes aegypti) | mortality at 300 ppm (dichromothrips corbetti) | mortality at 300 ppm (Tetranychus kanzawai) | mortality at 2500 ppm (Megoura viciae) | mortality at 300 ppm (Nezara viridula)

Cc1cc(C2=NOC(c3cc(Cl)cc(Cl)c3)(C(F)(F)F)C2)ccc1C(=O)NC1SC(=O)N(C)C1=O (stereo not drawn) [Compound I-1-4, 4-[5-(3,5-dichlorophenyl)-5-(trifluoromethyl)-4H-isoxazol-3-yl]-2-methyl-N-(3-methyl-2,4-dioxo-thiazolidin-5-yl)benzamide]
> 75%: mortality at 2500 ppm (Heliothis virescens) | mortality at 2500 ppm (Myzus persicae) | mortality at 2500 ppm (Anthonomus grandis) | mortality at 300 ppm (Plutella xylostella) | mortality at 2500 ppm (Aedes aegypti) | mortality at 300 ppm (Nephotettix virescens) | mortality at 300 ppm (dichromothrips corbetti) | mortality at 300 ppm (Tetranychus kanzawai) | mortality at 2500 ppm (Megoura viciae) | mortality at 300 ppm (Nezara viridula)

CCN1C(=O)SC(NC(=O)c2ccc(C3=NOC(c4cc(Cl)cc(Cl)c4)(C(F)(F)F)C3)cc2C)C1=O (stereo not drawn) [Compound I-1-5]
> 75%: mortality at 2500 ppm (Heliothis virescens) | mortality at 2500 ppm (Myzus persicae) | mortality at 300 ppm (Aphis craccivora) | mortality at 2500 ppm (Anthonomus grandis) | mortality at 300 ppm (Plutella xylostella) | mortality at 2500 ppm (Aedes aegypti) | mortality at 300 ppm (Nephotettix virescens) | mortality at 300 ppm (dichromothrips corbetti) | mortality at 300 ppm (Tetranychus kanzawai) | mortality at 2500 ppm (Megoura viciae) | mortality at 300 ppm (Nezara viridula)

Cc1cc(C2=NOC(c3cc(Cl)cc(Cl)c3)(C(F)(F)F)C2)ccc1C(=O)NC1SC(=O)N(C(C)C)C1=O (stereo not drawn) [Compound I-1-6]
> 75%: mortality at 2500 ppm (Heliothis virescens) | mortality at 2500 ppm (Myzus persicae) | mortality at 300 ppm (Aphis craccivora) | mortality at 2500 ppm (Anthonomus grandis) | mortality at 300 ppm (Plutella xylostella) | mortality at 2500 ppm (Aedes aegypti) | mortality at 300 ppm (Nephotettix virescens) | mortality at 300 ppm (dichromothrips corbetti) | mortality at 2500 ppm (Megoura viciae) | mortality at 300 ppm (Nezara viridula)

CN1C(=O)SC(NC(=O)c2ccc(C3=NOC(c4cc(Cl)cc(C(F)(F)F)c4)(C(F)(F)F)C3)c3c2CCC3)C1=O (stereo not drawn) [Compound I-1-8]
> 75%: mortality at 2500 ppm (Heliothis virescens) | mortality at 2500 ppm (Myzus persicae) | mortality at 2500 ppm (Anthonomus grandis) | mortality at 300 ppm (Plutella xylostella) | mortality at 2500 ppm (Aedes aegypti) | mortality at 300 ppm (Nephotettix virescens) | mortality at 300 ppm (dichromothrips corbetti) | mortality at 300 ppm (Tetranychus kanzawai) | mortality at 2500 ppm (Megoura viciae) | mortality at 300 ppm (Nezara viridula)

CN1COC(CNC(=O)c2ccc(C3=NOC(c4cc(Cl)cc(C(F)(F)F)c4)(C(F)(F)F)C3)c3c2CCC3)C1=O (stereo not drawn) [Compound I-3-3]
> 75%: mortality at 2500 ppm (Heliothis virescens) | mortality at 2500 ppm (Myzus persicae) | mortality at 300 ppm (Aphis craccivora) | mortality at 2500 ppm (Anthonomus grandis) | mortality at 300 ppm (Plutella xylostella) | mortality at 2500 ppm (Aedes aegypti) | mortality at 300 ppm (Nephotettix virescens) | mortality at 300 ppm (dichromothrips corbetti) | mortality at 300 ppm (Tetranychus kanzawai) | mortality at 2500 ppm (Megoura viciae) | mortality at 300 ppm (Nezara viridula)

Cc1cc(C2=NOC(c3cc(Cl)cc(Cl)c3)(C(F)(F)F)C2)ccc1C(=O)NCC1OCN(C)C1=O (stereo not drawn) [Compound I-3-11]
> 75%: mortality at 2500 ppm (Heliothis virescens) | mortality at 2500 ppm (Myzus persicae) | mortality at 2500 ppm (Caenorhabditis elegans) | mortality at 300 ppm (Aphis craccivora) | mortality at 2500 ppm (Anthonomus grandis) | mortality at 300 ppm (Plutella xylostella) | mortality at 2500 ppm (Aedes aegypti) | mortality at 300 ppm (dichromothrips corbetti) | mortality at 300 ppm (Tetranychus kanzawai) | mortality at 2500 ppm (Megoura viciae)
